According to ChEMBL document CHEMBL1201862, “PubChem BioAssay data set” (2004):
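Compound exposure: 48 hours, 5 concentrations, 96-well plates. The concentration for 50% growth inhibition is given as GI50.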 Activity calls are given as the source filed them. Rule as the data show it: active = GI50 up to about 1.1 µM and inactive = higher.

Legend:
Test in all cases: NCI anticancer screen, dose series, 48 h
TK-10 = tested on: TK-10
CAKI-1 = tested on: CAKI-1
ACHN = tested on: ACHN
HCT-116 = tested on: HCT-116
SN12C = tested on: SN12C
A549 = tested on: A549
COLO 205 = tested on: COLO 205
HOP-92 = tested on: HOP-92
LOX IMVI = tested on: LOX IMVI
OVCAR-3 = tested on: OVCAR-3
NCI-H23 = tested on: NCI-H23
SNB-19 = tested on: SNB-19
UACC-257 = tested on: UACC-257
HT-29 = tested on: HT-29
SK-MEL-28 = tested on: SK-MEL-28
M14 = tested on: M14
MOLT-4 = tested on: MOLT-4
RPMI-8226 = tested on: RPMI-8226
OVCAR-4 = tested on: OVCAR-4
SK-MEL-2 = tested on: SK-MEL-2

Measured: GI50

COc1ccc(C2C(C(=O)O)=C(CO)Oc3cc4c(cc32)OCO4)cc1 (stereo not given)
inactive: TK-10 > 100 µM | CAKI-1 > 100 µM | ACHN > 100 µM | HCT-116 > 100 µM | SN12C > 100 µM | A549 > 100 µM | COLO 205 > 100 µM | HOP-92 > 100 µM | LOX IMVI > 100 µM | OVCAR-3 > 100 µM | NCI-H23 > 100 µM | SNB-19 > 100 µM | UACC-257 > 100 µM | HT-29 > 100 µM | SK-MEL-28 > 100 µM | M14 > 100 µM | MOLT-4 > 10 µM | RPMI-8226 > 100 µM | OVCAR-4 > 100 µM | SK-MEL-2 > 100 µM

O=c1[nH]nc(NCc2ccccc2)c2nnn(Cc3ccccc3)c12
inactive: TK-10 > 100 µM | CAKI-1 > 100 µM | ACHN > 100 µM | HCT-116 > 100 µM | SN12C > 100 µM | A549 > 100 µM | COLO 205 > 100 µM | HOP-92 > 100 µM | LOX IMVI > 100 µM | OVCAR-3 > 100 µM | NCI-H23 > 100 µM | SNB-19 > 100 µM | UACC-257 > 100 µM | HT-29 > 100 µM | SK-MEL-28 > 100 µM | M14 > 100 µM | MOLT-4 > 100 µM | RPMI-8226 > 100 µM | OVCAR-4 > 100 µM | SK-MEL-2 > 100 µM

NC(CCOCCP(=O)(O)O)C(=O)O (stereo not given)
inactive: TK-10 > 100 µM | CAKI-1 > 100 µM | ACHN > 100 µM | HCT-116 > 100 µM | SN12C > 100 µM | A549 > 100 µM | COLO 205 > 100 µM | HOP-92 > 100 µM | LOX IMVI > 100 µM | OVCAR-3 > 100 µM | NCI-H23 > 100 µM | SNB-19 > 100 µM | UACC-257 > 100 µM | HT-29 > 100 µM | SK-MEL-28 > 100 µM | M14 > 100 µM | MOLT-4 > 100 µM | RPMI-8226 > 100 µM | OVCAR-4 > 100 µM | SK-MEL-2 > 100 µM
